Read-outs that look alike come from different tables or passages of the source.
Tests used:
[1] = Ligand charge of maytansinoid conjugates; assay type: physicochemical
human SSTR2 = human SSTR2 (Homo sapiens, UniProt P30874); assay: Radioligand-receptor binding assay, [125I] somatostatin, membranes from SSTR2 expressing CHO-K1 cells
Experimental: These conjugates were also assessed in an in vitro assay evaluating binding to the somatostatin receptor 2 (SSTR2). A radioligand-receptor binding assay was conducted at Eurofins Panlabs (Taiwan) to determine the affinity of conjugates described herein to the SSTR2. The assay measures binding of radiolabeled ligand, [^125I] labeled somatostatin, to human SSTR2 using membrane preparations from SSTR2 expressing CHO-K1 cells. Membranes were incubated with radiolabeled somatostatin (0.03 nM) in the presence of conjugate/compound starting at a dose of 10 uM using 6× serial dilutions to obtain a 10-pt curve. After a four hour incubation, membranes were filtered and washed 3× and counted to determine the remaining [^125I] somatostatin bound to the receptor. IC50 values were determined by a non-linear, least squares regression analysis using MathIQ™ (ID Business Solutions Ltd., UK).

[2] = test system: NCI-H524 (ATCC) human lung cancer cells; assay type: cell-based
Experimental: FIG. 1 is a graph of various conjugates represented as bars and showing on the Y-axis their activity in an H524 proliferation assay with and without competition by octreotide. […] This illustrates the suprprising finding that only maytansinoid conjugates show activity that is dependent on the receptor.
Conjugates were assessed in an in vitro assay evaluating inhibition of cell proliferation. NCI-H524 (ATCC) human lung cancer cells were plated in 96 well, V-bottomed plates (Costar) at a concentration of 5,000 cells/well and 24 hours later were treated with compound for 6 hours and further incubated 66 hours. Compound starting dose was 20 μM and three fold serial dilutions were done for a total of ten points. After 6 hours of treatment, cells were spun down, the drug containing media was removed, and fresh complete medium was added and used to resuspend the cells, which were spun again. After removal of the wash media, the cells were resuspended in complete medium, then transferred into white walled, flat bottomed 96 well plates. […] Proliferation was measured using CellTiter Glo reagent using the standard protocol (Promega) and a Glomax multi+detection system (Promega). Percent proliferation inhibition was calculated using the following formula: % inhibition=(control-treatment)/control*100. Control is defined as vehicle alone. IC50 curves were generated using the nonlinear regression analysis (four parameter) with GraphPad Prism 6.
Conjugates were tested for their activity dependence on the somatostatin receptor. Active agent Z in the conjugate was selected from auristatin, carbazitaxel, DM1, doxorubicin, platinum, SN-38 and vinblastine. Active agent Z is connected to octreotide with various linkers. Proliferation IC50 values of the conjugates were measured. Proliferation IC50 values of the conjugates without octreotide competition were also measured. The ratio of IC50 with octreotide competition and IC50 without octreotide competition is an indicator of whether activity is at least particially dependent on bind to the somatostatin receptor. […] Therefore, the activity of conjugates comprising DM1 is dependent on the binding to the somatostatin receptor.

[3] = read-out: H524 IC50 6 h, 6 hours treatment, further 66 hours incubation
[4] = read-out: H524 IC50 with 100 μM octreotide 6 h, with 100 μM octreotide competition, 6 h treatment

Chain of human SSTR2 (P30874 whole entry): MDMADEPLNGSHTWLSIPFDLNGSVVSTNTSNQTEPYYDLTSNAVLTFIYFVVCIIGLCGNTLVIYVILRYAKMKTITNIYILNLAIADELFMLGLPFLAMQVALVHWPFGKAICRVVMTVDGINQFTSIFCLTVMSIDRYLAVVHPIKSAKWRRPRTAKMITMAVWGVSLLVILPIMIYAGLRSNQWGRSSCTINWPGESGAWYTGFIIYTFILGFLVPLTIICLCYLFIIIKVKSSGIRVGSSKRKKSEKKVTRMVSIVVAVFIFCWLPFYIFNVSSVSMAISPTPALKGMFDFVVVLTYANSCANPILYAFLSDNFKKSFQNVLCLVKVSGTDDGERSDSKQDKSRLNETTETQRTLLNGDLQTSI

Row | SMILES | Ligand charge [1] | Ki (human SSTR2) | IC50 [2, 3] | IC50 [2, 4] | effect on cell proliferation ([2]; octreotide alone)
1 | CCCC(=O)N[C@H](Cc1ccccc1)C(=O)N[C@H]1CSSC[C@@H](C(=O)N[C@H](C(=O)NCCSSC(C)(C)CCC(=O)N(C)[C@@H](C)C(=O)O[C@H]2CC(=O)N(C)c3cc(cc(OC)c3Cl)C/C(C)=C/C=C/[C@@H](OC)[C@@]3(O)C[C@H](OC(=O)N3)[C@@H](C)[C@@H]3O[C@@]23C)[C@@H](C)O)NC(=O)[C@H]([C@@H](C)O)NC(=O)[C@H](CCCCN)NC(=O)[C@@H](Cc2c[nH]c3ccccc23)NC(=O)[C@H](Cc2ccc(O)cc2)NC1=O [Conjugate 3] | +1 |  |  |  | 
2 | COc1cc2cc(c1Cl)N(C)C(=O)C[C@H](OC(=O)[C@H](C)N(C)C(=O)CCC(C)(C)SSC[C@H](NC(=O)[C@@H]1CSSC[C@H](NC(=O)[C@@H](Cc3ccccc3)NC(=O)Nc3ccccc3)C(=O)N[C@@H](Cc3ccc(O)cc3)C(=O)N[C@H](Cc3c[nH]c4ccccc34)C(=O)N[C@@H](CCCCN)C(=O)N[C@@H]([C@@H](C)O)C(=O)N1)C(N)=O)[C@]1(C)O[C@H]1[C@H](C)[C@@H]1C[C@@](O)(NC(=O)O1)[C@H](OC)/C=C/C=C(\C)C2 [Conjugate 5] | +1 | 0.32 nM | 7.7 nM | 317 nM | 
3 | COc1cc2cc(c1Cl)N(C)C(=O)C[C@H](OC(=O)[C@H](C)N(C)C(=O)CCSSC(C)(C)[C@@H](NC(=O)[C@@H]1CSSC[C@H](NC(=O)[C@H](N)Cc3ccccc3)C(=O)N[C@@H](Cc3ccc(O)cc3)C(=O)N[C@H](Cc3c[nH]c4ccccc34)C(=O)N[C@@H](CCCCN)C(=O)N[C@@H]([C@@H](C)O)C(=O)N1)C(N)=O)[C@]1(C)O[C@H]1[C@H](C)[C@@H]1C[C@@](O)(NC(=O)O1)[C@H](OC)/C=C/C=C(\C)C2 [Conjugate 8] | +2 | 0.79 nM | 270 nM | 467 nM | 
4 | COc1cc2cc(c1Cl)N(C)C(=O)C[C@H](OC(=O)[C@H](C)N(C)C(=O)CCSSC(C)(C)[C@@H](NC(=O)[C@@H]1CSSC[C@H](NC(=O)[C@@H](Cc3ccccc3)NC(=O)NCc3ccccc3)C(=O)N[C@@H](Cc3ccc(O)cc3)C(=O)N[C@H](Cc3c[nH]c4ccccc34)C(=O)N[C@@H](CCCCN)C(=O)N[C@@H]([C@@H](C)O)C(=O)N1)C(N)=O)[C@]1(C)O[C@H]1[C@H](C)[C@@H]1C[C@@](O)(NC(=O)O1)[C@H](OC)/C=C/C=C(\C)C2 [Conjugate 9] | +1 | 3.15 nM | 208 nM | 815 nM | 
5 | COc1cc2cc(c1Cl)N(C)C(=O)C[C@H](OC(=O)[C@H](C)N(C)C(=O)CCSSC(C)(C)[C@H](NC(=O)[C@@H]1CSSC[C@H](NC(=O)[C@@H](Cc3ccccc3)NC(=O)NCc3ccc(C(F)(F)F)cc3)C(=O)N[C@@H](Cc3ccc(O)cc3)C(=O)N[C@H](Cc3c[nH]c4ccccc34)C(=O)N[C@@H](CCCCN)C(=O)N[C@@H]([C@@H](C)O)C(=O)N1)C(N)=O)[C@]1(C)O[C@H]1[C@H](C)[C@@H]1C[C@@](O)(NC(=O)O1)[C@H](OC)/C=C/C=C(\C)C2 [Conjugate 15] | +1 | 0.077 nM | 17 nM | 262 nM | 
6 | CCNC(=O)N[C@H](Cc1ccccc1)C(=O)N[C@H]1CSSC[C@@H](C(=O)N[C@H](C(=O)N[C@H](C(N)=O)C(C)(C)SSCCC(=O)N(C)[C@@H](C)C(=O)O[C@H]2CC(=O)N(C)c3cc(cc(OC)c3Cl)C/C(C)=C/C=C/[C@@H](OC)[C@@]3(O)C[C@H](OC(=O)N3)[C@@H](C)[C@@H]3O[C@@]23C)[C@@H](C)O)NC(=O)[C@H]([C@@H](C)O)NC(=O)[C@H](CCCCN)NC(=O)[C@@H](Cc2c[nH]c3ccccc23)NC(=O)[C@H](Cc2ccc(O)cc2)NC1=O [Conjugate 16] | +1 |  | 185 nM | 516 nM | 
7 | COc1cc2cc(c1Cl)N(C)C(=O)C[C@H](OC(=O)[C@H](C)N(C)C(=O)CCSSC(C)(C)[C@H](NC(=O)[C@@H](NC(=O)[C@@H]1CSSC[C@H](NC(=O)[C@@H](Cc3ccccc3)NCc3ccccc3)C(=O)N[C@@H](Cc3ccc(O)cc3)C(=O)N[C@H](Cc3c[nH]c4ccccc34)C(=O)N[C@@H](CCCCN)C(=O)N[C@@H]([C@@H](C)O)C(=O)N1)[C@@H](C)O)C(N)=O)[C@]1(C)O[C@H]1[C@H](C)[C@@H]1C[C@@](O)(NC(=O)O1)[C@H](OC)/C=C/C=C(\C)C2 [Conjugate 17] | +2 |  | 8.5 nM | 48 nM | 
8 | COc1cc2cc(c1Cl)N(C)C(=O)C[C@H](OC(=O)[C@H](C)N(C)C(=O)CCSC1CC(=O)N(CCCCCNC(=O)[C@@H](NC(=O)[C@@H]3CSSC[C@H](NC(=O)[C@@H](Cc4ccccc4)NC(=O)NC4CCCCC4)C(=O)N[C@@H](Cc4ccc(O)cc4)C(=O)N[C@H](Cc4c[nH]c5ccccc45)C(=O)N[C@@H](CCCCN)C(=O)N[C@@H]([C@@H](C)O)C(=O)N3)[C@@H](C)O)C1=O)[C@]1(C)O[C@H]1[C@H](C)[C@@H]1C[C@@](O)(NC(=O)O1)[C@H](OC)/C=C/C=C(\C)C2 (stereo partly shown) [Conjugate 22] | +1 |  | 2.6 nM | 94 nM | 
9 | CCNC(=O)N[C@H](Cc1ccccc1)C(=O)N[C@H]1CSSC[C@@H](C(=O)N[C@H](C(=O)NCCCCCN2C(=O)CC(SCCC(=O)N(C)[C@@H](C)C(=O)O[C@H]3CC(=O)N(C)c4cc(cc(OC)c4Cl)C/C(C)=C/C=C/[C@@H](OC)[C@@]4(O)C[C@H](OC(=O)N4)[C@@H](C)[C@@H]4O[C@@]34C)C2=O)[C@@H](C)O)NC(=O)[C@H]([C@@H](C)O)NC(=O)[C@H](CCCCN)NC(=O)[C@@H](Cc2c[nH]c3ccccc23)NC(=O)[C@H](Cc2ccc(O)cc2)NC1=O (stereo partly shown) [Conjugate 23] | +1 |  | 5 nM | 124 nM | 
10 | COc1cc2cc(c1Cl)N(C)C(=O)C[C@H](OC(=O)[C@H](C)N(C)C(=O)CCSSC[C@@H](NC(=O)[C@@H]1CSSC[C@H](NC(=O)[C@@H](Cc3ccccc3)NC(C)=O)C(=O)N[C@@H](Cc3ccc(O)cc3)C(=O)N[C@H](Cc3c[nH]c4ccccc34)C(=O)N[C@@H](CCCCN)C(=O)N[C@@H]([C@@H](C)O)C(=O)N1)C(N)=O)[C@]1(C)O[C@H]1[C@H](C)[C@@H]1C[C@@](O)(NC(=O)O1)[C@H](OC)/C=C/C=C(\C)C2 [Conjugate 31] | +1 | 0.21 nM |  |  | 
11 | CCNC(=O)N[C@H](Cc1ccccc1)C(=O)N[C@H]1CSSC[C@@H](C(=O)N[C@H](C(=O)N2CCCCC2)C(C)(C)SSCCC(=O)N(C)[C@@H](C)C(=O)O[C@H]2CC(=O)N(C)c3cc(cc(OC)c3Cl)C/C(C)=C/C=C/[C@@H](OC)[C@@]3(O)C[C@H](OC(=O)N3)[C@@H](C)[C@@H]3O[C@@]23C)NC(=O)[C@H]([C@@H](C)O)NC(=O)[C@H](CCCCN)NC(=O)[C@@H](Cc2c[nH]c3ccccc23)NC(=O)[C@H](Cc2ccc(O)cc2)NC1=O [Conjugate 33] | +1 |  | 265 nM | 462 nM | 
12 | CCNC(=O)N[C@H](Cc1ccccc1)C(=O)N[C@H]1CSSC[C@@H](C(=O)N[C@H](C(=O)N[C@@H](CSSCCC(=O)N(C)[C@@H](C)C(=O)O[C@H]2CC(=O)N(C)c3cc(cc(OC)c3Cl)C/C(C)=C/C=C/[C@@H](OC)[C@@]3(O)C[C@H](OC(=O)N3)[C@@H](C)[C@@H]3O[C@@]23C)C(N)=O)[C@@H](C)O)NC(=O)[C@H]([C@@H](C)O)NC(=O)[C@H](CCCCN)NC(=O)[C@@H](Cc2c[nH]c3ccccc23)NC(=O)[C@H](Cc2ccc(O)cc2)NC1=O [Conjugate 36] | +1 |  | 0.78 nM | 10 nM | 
13 | COc1cc2cc(c1Cl)N(C)C(=O)C[C@H](OC(=O)[C@H](C)N(C)C(=O)CCSSCCNC(=O)CC[C@H]1C(=O)N[C@@H](Cc3ccc(O)cc3)C(=O)N[C@H](Cc3c[nH]c4ccccc34)C(=O)N[C@@H](CCCCNC(=O)NCCCCCCN)C(=O)N[C@@H]([C@@H](C)O)C(=O)N[C@@H](Cc3ccccc3)C(=O)N1C)[C@]1(C)O[C@H]1[C@H](C)[C@@H]1C[C@@](O)(NC(=O)O1)[C@H](OC)/C=C/C=C(\C)C2 [Conjugate 55] | +1 | 110 nM |  |  | 
14 | C[C@@H](O)[C@@H]1NC(=O)[C@H](CCCCN)NC(=O)[C@@H](Cc2c[nH]c3ccccc23)NC(=O)[C@H](Cc2ccccc2)NC(=O)[C@@H](NC(=O)[C@H](N)Cc2ccccc2)CSSC[C@@H](C(=O)N[C@H](CO)[C@@H](C)O)NC1=O [Octreotide, H2N-D-Phe-Cys-Phe-D-Trp-Lys-Thr-Cys-Thr-ol (disulfide bridge Cys2-Cys7), reference compound] |  |  |  |  | no significant effect

— patent US20190125888A1, “TARGETED CONJUGATES AND PARTICLES AND FORMULATIONS THEREOF” (priority 2015, published 2019)
